In a melting point compilation (Tetko et al.; mined from patent text by program, amines drawn as free bases though some values may be those of a salt):

Row | melting point | SMILES
1 | 145 to 146 °C | CCCC(C(=O)O)C1(c2ccccc2)CC(O)=C(Sc2ccccc2C(C)C)C(=O)O1 (configuration not stated)
2 | 192 to 194 °C | NC(=O)CNC(=O)c1cc(F)cc(-c2ccc(F)c3cc(Cc4cc(F)cc(Cl)c4)sc23)c1
3 | 66 to 68 °C | FC(F)(F)c1ccccc1-c1nc(-c2ccccc2Cl)nn1CCCl
4 | 108 °C | CCCCCS(=O)(=O)NC(=O)/C=C/c1ccc(OCCO[Si](c2ccccc2)(c2ccccc2)C(C)(C)C)cc1Oc1ncc(C(F)(F)F)cc1Cl
5 | 110 °C | C=C1C(=C)C2OC1C1=C2CC2C(O)C=CC(=O)C2C1 (configuration not stated)
6 | 62 to 64 °C | CCOC(=O)c1cc2ccccc2n1C
7 | 75 °C | Cc1ccc(S(=O)(=O)OCCN2Cc3ccccc3C2=O)cc1
8 | 97 to 98 °C | CC(C)c1c(C=C(Cl)Cl)c(-c2ccc(F)cc2)n2c1CCCC2
9 | 140 to 142 °C | CCC(C)C(NC(=O)C(CS)C(F)(F)F)C(=O)O (configuration not stated)
10 | 168 to 172 °C | COc1cc2oc(=O)c3c(c2cc1OC)CCN(CC(C)=O)C3
11 | 188 °C | O=C(O)CN1C(=O)C(=O)N(Cc2cccc([N+](=O)[O-])c2)C1=S
12 | 126 to 127 °C | CC(C)(C)OC(=O)Cn1ncc2c1CCN(C(=O)OC(C)(C)C)C2
13 | 284 °C | C[C@H](CO)Nc1nc(SCc2ccccc2)nc2[nH]c(=O)[nH]c12
14 | 217 to 218 °C | O=C1CCC(N2C(=O)c3cccc(NC(=O)Cc4ccccc4)c3C2=O)C(=O)N1 (configuration not stated)
15 | 131 °C | O=C(NCc1cncc(F)c1)c1ccc(S(=O)(=O)n2cc(-c3ccccc3)c3ccccc32)cc1
16 | 155 to 157 °C | COc1ccc(CC2NC(=O)NC2=O)cc1OCc1ccccc1 (racemic)
17 | 162 to 165 °C | COc1ccc(C(=O)Oc2ccc(O)cc2)cc1
18 | 236 to 238 °C | N#Cc1c(C(N)=O)nn2c(-c3cccc(C(F)(F)F)c3)ccnc12
19 | > 300 °C | O=C1NCC(=O)c2[nH]cnc2N1
20 | 131 to 132 °C | CCOC(=O)Cc1[nH]c(C(=O)OC(C)(C)C)c(CCc2cccc(Cl)c2)c1C(=O)OCC
21 | 236 to 238 °C | Cc1cc(-c2nnc3c4ccccc4c(OCc4cncn4C)nn23)no1
22 | 187 °C | CC(C)(OC(=O)NC(Cc1c[nH]c2ccccc12)C(=O)NC(Cc1ccccc1)C(N)=O)C(Cl)(Cl)Cl (configuration not stated)
23 | 116 to 118 °C | OC(Cc1ccc(F)cc1)(Cn1cncn1)c1ccccc1 (configuration not stated)

Row | melting point | SMILES
24 | 195 to 196 °C | CN(C1CCN(CCC(F)(F)F)CC1)S(=O)(=O)c1ccc(Nc2nccc(Nc3ccc(F)cc3)n2)cc1
25 | 184 to 185 °C | CCCc1nc2c(n1Cc1ccc(-c3ccccc3-c3nnn[nH]3)cc1)C(C(=O)OCC)N(C(C)=O)CC2 (configuration not stated)
26 | 109 to 112 °C | C[C@@H](n1cnc2cc(Br)ccc2c1=O)[C@](O)(Cn1cncn1)c1ccc(F)cc1F
27 | 112 to 115 °C | CC1CCCC(C)N1Cc1ccc(N)cc1 (configuration not stated)
28 | 40 to 41 °C | CC(=O)SCc1ccc(I)cc1
29 | 192 to 194 °C | Cn1nc(-c2cccc(C(F)(F)F)c2)c(O)c1C(=O)O
30 | 106 to 107 °C | CC(C)(C)OC(=O)Nc1c(F)ccc2c1OC(C)(C)O2
31 | 87 to 89 °C | COC(=O)c1cc(COc2c(OC)c3cocc(OC)c-3c2C(C)=O)ccc1COc1c(OC)c2cocc(OC)c-2c1C(C)=O
32 | 195 to 196 °C | Cc1cc(=O)[nH]c2nc(CCCCCN3CCN(c4cccc(Cl)c4Cl)CC3)ccc12
33 | 113 to 114 °C | CCOC(=O)C1=C(Cl)N=C(C)N(C(=O)OC)C1c1cccc([N+](=O)[O-])c1 (configuration not stated)
34 | 156 to 157 °C | O=C1c2c(O)cccc2C(Sc2ccccc2)c2cccc(O)c21
35 | 45 to 47 °C | CC(=O)OC1=C(CCCCCCCCC[Si](C)(C)C)C(=O)c2ccccc2C1=O
36 | 51.9 to 53.2 °C | C=CC1=C(C(=O)OCC)C(C(F)(F)F)Oc2ccc(Cl)cc21 (configuration not stated)
37 | 194 to 195 °C | O=c1oc(-c2ccc(S(=O)(=O)c3ccccc3)cc2)cc(O)c1SCCc1ccccc1
38 | 33 to 36 °C | C[C@@H]1CNCCN1C(=O)OC(C)(C)C
39 | 176 to 178 °C | CCc1c(-c2ccc(O)cc2)c2c(CN(C)C)cc3cccc1n32
40 | 193 to 196 °C | CCNC(=O)NC[C@H]1CN(c2ccc3c(c2)CCCc2cnoc2-3)C(=O)O1
41 | 87 to 92 °C | CCCCN(CC(O)C(Cc1ccccc1)NC(=O)C(C)CS(C)(=O)=O)S(=O)(=O)c1ccc(OC)cc1 (configuration not stated)
42 | 230 to 232 °C | CCCn1nc(C2CC2)c(C(=O)O)c1Cc1ccc(-c2ccccc2S(=O)(=O)NC(=O)c2ccccc2)cc1
43 | 227 to 229 °C | Cn1cc(-c2cccc(N3CCc4c(cc5n4CCCC5)C3=O)c2CO)cc(Nc2ccc(C3CNC3)cn2)c1=O
44 | 163 to 165 °C | CN1CCN(Cc2ccccc2C(F)(F)F)C(C2=NCCN2)C1 (configuration not stated)
45 | 124 to 126 °C | BrC(Br)(Br)c1ccc2cc(I)ccc2n1
46 | 105 to 106 °C | CCCCc1nc(Cl)c(C(=O)OC(C)C)n1Cc1ccc2oc(-c3ccccc3-c3nnn[nH]3)c(Br)c2c1

Row | melting point | SMILES
47 | 83 to 85.5 °C | COC(=O)CCCCc1cc2c(n1-c1ccccc1)CC(O)C2 (configuration not stated)
48 | 238 °C | Nc1ncnc2c1ncn2OCC/C=C/P(=O)(O)O
49 | 104 to 105 °C | CCOC(=O)c1cccc([N+](=O)[O-])c1NC(=O)OC(C)(C)C
50 | 236 to 238 °C | COc1ccc(C(CC(=O)O)N2C(=O)C3C=C(Cl)C(Cl)=C(Cl)C3(Cl)C2=O)cc1 (configuration not stated)
51 | 123 to 125 °C | O=Cc1cc2c3ccccc3oc2c2ccccc12
52 | 57 to 58 °C | Clc1cc(Cl)c(Cl)nn1
53 | 124 °C | CCOc1cc2c(cc1OC)C(c1cnc(OC)nc1)=N[C@@H]1CC[C@@H](O)C[C@H]21
54 | 66 to 68 °C | CCOC(=O)CC1CCc2cc3ccccc3n2C1 (configuration not stated)
55 | 115 to 117 °C | CCCCc1nn(-c2cc(NC(=S)CCC)ccc2Cl)c(=O)n1Cc1ccc(-c2ccccc2S(=O)(=O)NC(=O)OC(C)(C)C)cc1F
56 | 181 to 182 °C | CC(C)n1cnc2c(NCc3ccccc3)nc(Cl)nc21
57 | 224 to 225 °C | OCC1OC(n2cnc3c(-c4ccccc4)ncnc32)C(O)C1O (configuration not stated)
58 | 52 to 54 °C | CN(C)CCSCc1c(CCN(C)C)[nH]c2ccccc12
59 | 174 to 176 °C | O=C(O)c1ccccc1-c1cc(-c2ccc(Cl)cc2)on1
60 | 218 to 220 °C | COc1ccc2cccc3c2c1C(=O)C3=O
61 | 308 to 309 °C | Cn1c2ccccc2c(=O)c2c([N+](=O)[O-])cccc21
62 | 104 to 107 °C | COc1ccc(C=O)cc1I
63 | 197 to 199 °C | COc1ccc(C2=NN(c3ccc(C(C)(C)C)cc3)C(=O)[C@H]3CC=CC[C@@H]23)cc1OC (relative stereo)
64 | 112 to 114 °C | Cc1cc(C)n(-c2cnc(CN(C)C)c(Nc3ccc(Cl)cc3)n2)n1
65 | 163 to 165 °C | O=C(O)C1CCCC(C(=O)O)C1 (configuration not stated)
66 | 29.5 to 32 °C | CCOC(=O)CCc1c(OCCCCCBr)ccc2ccc(OCC(=O)OCC)cc12
67 | 57 to 59 °C | COCc1cc([N+](=O)[O-])c(Cl)cc1C#N
68 | 142 to 144 °C | CC(C)c1cccc(C(C)C)c1N=c1cccc(-c2cccc3ccccc23)[nH]1
69 | 131 to 135 °C | COc1ccc(-c2nc(C)c(-c3cccnc3)n2O)cc1OC

Row | melting point | SMILES
70 | 140 to 143 °C | CCOc1cccc(NC(=O)Nc2ccc(N3CCN(C(=O)Nc4cc(OCCO)ccc4Cl)CC3)nc2)c1
71 | 207 to 209 °C | Cc1cc2c(-c3ccccc3Cl)c(NC(=O)Nc3ccc(Cl)cc3)c(=O)n(C)c2cc1C
72 | 229 to 230 °C | O=C(CN1C(=O)C2(COc3cc4c(cc32)CCO4)c2cc(Cl)ccc21)Nc1ccccc1F (configuration not stated)
73 | 44 to 47 °C | COC(=O)C#CC(=O)c1ccc(C)cc1
74 | 95 to 96 °C | CCCOc1ccc(CCCOc2nn(C)cc2CC(=O)O)c(Oc2ncc(C(F)(F)F)cc2Cl)c1
75 | 193 to 194 °C | CNC(=O)NS(=O)(=O)c1cc2c(cc1OC)OCCC2CNC(=O)c1cc(F)ccc1OC (configuration not stated)
76 | 79 to 83 °C | CC(C)(C)[C@H](NC(=O)CCC1c2ccccc2-c2ccccc21)C(=O)O
77 | 290 °C | COc1cccc(OC)c1-c1cc(C(=O)NC2(C(=O)O)C3CC4CC(C3)CC2C4)nn1-c1ccc(C#N)c2ccccc12 (configuration not stated)
78 | 153 to 156 °C | CCC(=O)Nc1c(C#N)cnn1-c1c(Cl)cc(SC(F)(F)F)cc1Cl
79 | 51 to 52 °C | COC(=O)c1cc(F)c(C)c(N)c1Cl
80 | 130 to 134 °C | CNCc1ccc2c(c1)C(Cc1ccnc(F)c1)(Cc1ccnc(F)c1)c1ccccc1-2
81 | 169 to 170 °C | CN1CCSC1=NC(=S)Nc1ccccc1
82 | 112 to 113 °C | Cn1nc(CBr)cc1C(=O)NCCc1ccccc1
83 | 159 to 161 °C | NC(=O)Nc1ccc2c(OCc3ccccc3-c3ccccc3)cccc2c1
84 | 177 °C | C=C(COCC(=C)C(=O)O)C(=O)O
85 | 104 to 106 °C | Nc1ccc(SCCOC2OC(CO)C(OC3OC(CO)C(O)C(O)C3O)C(O)C2O)cc1 (configuration not stated)
86 | 145 to 147 °C | Cc1nc2c(CN3CCOCC3)cc(Cl)nn2c1C(=O)c1ccc(Cl)cc1F
87 | 205 °C | O=C(O)c1cn(CCCO)c(=O)c2ccccc12
88 | 117 °C | CCC(C)N(C)C(=O)c1cc2ccsc2c(-c2ccccc2)n1 (configuration not stated)
89 | 268 to 270 °C | O=C1Nc2cccnc2Oc2ccccc21
90 | 30 to 35 °C | O=C1N(CCCCCl)CCN1C1CCCCC1
91 | 150 to 152 °C | CC(C)c1ccc(S(=O)(=O)c2ccccc2)cc1S(=O)(=O)NC1CCN(C(=O)c2ccc(C(C)(C)C)cc2)CC1
92 | 164 to 166 °C | CC(C)c1cc(C(C)C)c(CC(=O)NS(=O)(=O)Oc2c(C(C)C)cc(S(N)(=O)=O)cc2C(C)C)c(C(C)C)c1

Row | SMILES | melting point
93 | CC(=O)OCCc1c(C2=CCC(c3ccccc3)(N(C)C)CC2)[nH]c2ccccc12 (configuration not stated) | 146 to 148 °C
94 | C=CC(C)(O)C#Cc1ncn2c1CN(C)C(=O)c1c(Cl)cccc1-2 (configuration not stated) | 185 to 187 °C
95 | CN1Cc2c(C(=O)OCC3CC3)ncn2-c2ccc(F)cc2C1=O | 156 to 157 °C
96 | N#Cc1nnc2n1-c1ccc(Cl)cc1C(c1ccccc1)=NC2 | 191 to 192 °C
97 | CCC[C@@H]([C@@H](CC(C)C)C(=O)N[C@@H](CCCNCN=N[N+](=O)[O-])C(=O)Nc1nccs1)N(O)C=O | 130 to 136 °C
